Here are results for eight compounds from ChEMBL document CHEMBL1201862, “PubChem BioAssay data set” (2004).

Some test systems named below: BT-549; CCRF-CEM; HCC 2998; HCT-116; HT-29; Hs-578T; NCI-H522; OVCAR-3; OVCAR-5; OVCAR-8; SF-539; SK-MEL-28; SK-OV-3; SNB-19; SNB-75; SR; TK-10; CAKI-1; MOLT-4.
Holding throughout (test): growth of human tumour cells (NCI), 48 h

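Protocol summary: plate cells (96-well), add compound at 5 concentrations, incubate 48 h, interpolate endpoints linearly. The concentration for 50% growth inhibition is given as GI50.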 Calls of active or inactive are those of the source. Cut-off read from the data, not from the text of the source: active = GI50 up to about 1.1 µM and inactive = higher. Where a SMILES comes first, the peptide text is derived from it. [ ]: non-standard residue; d: D form. Ac5c = NC1(C(=O)O)CCCC1 Some results are limits rather than exact numbers.

Regarding `O=C1N[C@@H](c2c[nH]c3cc(Br)ccc23)C(=O)N[C@H]1c1c[nH]c2cc(Br)ccc12`, the GI50 with BT-549, in the experiment with CCRF-CEM, with HCC 2998, in the experiment on HCT-116, in the experiment with HT-29 and in the experiment on Hs-578T was > 100 µM (inactive) throughout. For the same compound, the GI50 in the experiment with NCI-H522 is > 100 µM (inactive); with OVCAR-3 it was > 100 µM (inactive); in the experiment with OVCAR-5 it was > 100 µM (inactive); in the experiment with OVCAR-8, 29.9 µM (inactive); in the experiment on SF-539, 79.8 µM (inactive); in the experiment on SK-MEL-28 it was > 100 µM (inactive). The GI50 in the experiment on SK-OV-3 is 35.4 µM (inactive); with SNB-19 it was > 100 µM (inactive); in the experiment on SNB-75, 9.4 µM (inactive); in the experiment on SR, > 100 µM (inactive); in the experiment with TK-10 it was > 100 µM (inactive).

Turning to `CCCCCCNC(=O)c1cc(CCc2cc(O)ccc2O)ccc1O`, the GI50 in the experiment on BT-549 was 1.94 µM (inactive); with CAKI-1 it was 3.32 µM (inactive); with CCRF-CEM it was 1.92 µM (inactive); in the experiment on HCC 2998, 3.15 µM (inactive); in the experiment on HT-29, 20.1 µM (inactive); with Hs-578T, 3.59 µM (inactive). The GI50 in the experiment with MOLT-4 is 1.93 µM (inactive); in the experiment with NCI-H522, 0.916 µM (active); in the experiment on OVCAR-3, 2.3 µM (inactive); with OVCAR-5 it was 7.05 µM (inactive); with OVCAR-8, 3.56 µM (inactive); with SK-MEL-28, 2.74 µM (inactive). Also, the GI50 with SK-OV-3 was 9.95 µM (inactive); in the experiment with SNB-19, 10.7 µM (inactive); in the experiment with SNB-75, 4.93 µM (inactive); with SR, 2.23 µM (inactive); in the experiment with TK-10, 2.96 µM (inactive).

As to `CC1(C)OC(=S)N(c2ccccc2)C12C=Cc1cc3ccccc3cc1O2` (centres undefined), the GI50 in the experiment on BT-549, in the experiment on CAKI-1, with CCRF-CEM, in the experiment with HCC 2998, in the experiment with HCT-116 and with HT-29 was > 100 µM (inactive) throughout. The GI50 with Hs-578T, in the experiment on MOLT-4, in the experiment on OVCAR-3, with OVCAR-5, in the experiment with OVCAR-8 and with SK-MEL-28 was > 100 µM (inactive) throughout. The GI50 was > 100 µM (inactive) with SK-OV-3; > 100 µM (inactive) in the experiment with SNB-19; > 100 µM (inactive) in the experiment with SNB-75; 9.46 µM (inactive) in the experiment on SR; > 100 µM (inactive) in the experiment with TK-10.

As for `NC1(C(=O)NC2(C(=O)O)CCCC2)CCCC1` (H-[Ac5c]-[Ac5c]-OH), the GI50 in the experiment with BT-549, in the experiment with CAKI-1, with CCRF-CEM, in the experiment with HCT-116, in the experiment with HT-29 and in the experiment on Hs-578T was > 100 µM (inactive) in each case. The GI50 with MOLT-4, in the experiment with NCI-H522, in the experiment with OVCAR-3, in the experiment on OVCAR-5, in the experiment on OVCAR-8 and with SF-539 was > 100 µM (inactive) throughout. In addition, the GI50 in the experiment on SK-MEL-28, with SK-OV-3, in the experiment on SNB-19, with SNB-75, in the experiment with SR and with TK-10 was > 100 µM (inactive) in each case.

`Cc1ccc(C2(N3CCCC3)OC(C)(C)c3cccc4cccc2c34)cc1` (centres undefined): the GI50 is 15.7 µM (inactive) in the experiment with BT-549; 15.7 µM (inactive) in the experiment with CAKI-1; 41.1 µM (inactive) in the experiment on CCRF-CEM; 15.6 µM (inactive) in the experiment on HCT-116; 13.4 µM (inactive) with HT-29; 15.6 µM (inactive) with Hs-578T. Moreover, the GI50 in the experiment with MOLT-4 is 20.7 µM (inactive); in the experiment with NCI-H522, 12.9 µM (inactive); with OVCAR-3, 14.9 µM (inactive); in the experiment on OVCAR-5, 15.8 µM (inactive); in the experiment on OVCAR-8, 15.2 µM (inactive); in the experiment on SF-539 it was 16.9 µM (inactive). In addition, the GI50 is 15.6 µM (inactive) in the experiment with SK-OV-3; 16.3 µM (inactive) in the experiment on SNB-19; 13.5 µM (inactive) in the experiment on SNB-75; 23.2 µM (inactive) with SR; 16.8 µM (inactive) with TK-10.

Consider `O=C(O)COCC(=O)N(CCOCCN(Cc1ccccc1)C(=O)COCC(=O)O)Cc1ccccc1`, for which the GI50 in the experiment with BT-549, in the experiment on CAKI-1, with CCRF-CEM, in the experiment with HCC 2998, in the experiment with HCT-116 and in the experiment on HT-29 was > 100 µM (inactive) each time. In addition, the GI50 with Hs-578T, in the experiment with MOLT-4, with NCI-H522, in the experiment on OVCAR-3, in the experiment on OVCAR-5 and in the experiment with OVCAR-8 was > 100 µM (inactive) each time. Besides, the GI50 in the experiment with SF-539, with SK-MEL-28, in the experiment with SK-OV-3, with SNB-19, in the experiment on SR and with TK-10 was > 100 µM (inactive) throughout.

For the compound `CC(C)c1nc2c(Cl)c3ncccc3cc2[nH]c1=O`, the GI50 in the experiment on BT-549 is 54.5 µM (inactive); in the experiment with CAKI-1, 94.6 µM (inactive); in the experiment on CCRF-CEM, 46.2 µM (inactive); in the experiment on HCT-116 it was > 100 µM (inactive); in the experiment with HT-29, > 100 µM (inactive); in the experiment on Hs-578T, 25.8 µM (inactive). Further, the GI50 with MOLT-4 was 29.6 µM (inactive); in the experiment with NCI-H522 it was 16.7 µM (inactive); in the experiment with OVCAR-3, > 100 µM (inactive); in the experiment with OVCAR-5 it was > 100 µM (inactive); in the experiment on OVCAR-8, 29.2 µM (inactive); in the experiment with SF-539, > 100 µM (inactive). Also, the GI50 was > 100 µM (inactive) in the experiment with SK-MEL-28; > 100 µM (inactive) with SK-OV-3; > 100 µM (inactive) in the experiment on SNB-19; 26.4 µM (inactive) in the experiment with SNB-75; > 100 µM (inactive) in the experiment with SR.

Regarding `O=C(NNC(=O)c1cc2ccccc2[nH]1)c1cc2ccccc2[nH]1`, the GI50 in the experiment with BT-549, in the experiment with CAKI-1, in the experiment with CCRF-CEM, in the experiment on HCT-116, with HT-29 and in the experiment with Hs-578T was > 100 µM (inactive) throughout. Moreover, the GI50 in the experiment with MOLT-4, in the experiment with NCI-H522, with OVCAR-3, with OVCAR-5, in the experiment with OVCAR-8 and with SF-539 was > 100 µM (inactive) throughout. Also, the GI50 in the experiment on SK-MEL-28 is > 100 µM (inactive); in the experiment with SK-OV-3 it was > 100 µM (inactive); in the experiment on SNB-19 it was > 100 µM (inactive); in the experiment on SNB-75 it was > 100 µM (inactive); with SR, 66.5 µM (inactive); in the experiment on TK-10 it was > 100 µM (inactive).
